Experimental data as given in patent US20150056702A1, “METHOD AND KIT FOR CULTURING STEM CELLS” (China Medical University, priority 2013, published 2015).

What was measured:
Sox2 = assay: Real-time PCR, Sox2 gene expression in ES cells; assay type: cell-based, mouse; conditions: for Sox2 gene expression level: ES cells, control group = 100%
Method: The following steps were conducted in order to culture ES cells: • (1) preparing a stem cell medium: DMEM+15% heat-inactivated FBS+NEAA (0.1 mM)+L-glutamine (2 mM)+β-mercaptoethanol (0.2 mM); • (2) preparing a BP-containing solution: dissolving BP into DMSO to form a BP-containing solution (100 mg/ml), and storing the solution at −20° C.; • (3) adding different amounts of the BP-containing solution in step (2) into the stem cell medium in step (1) to form different BP-containing mediums, wherein the amount of BP were about 5, 10, 20 or 40 μg per milliliter of the stem cell medium respectively (i.e. the experimental group mediums: BP5, BP10, BP20 and BP40); and • (4) using the BP-containing medium of in step (3) to culture a ES cell (retrieved from the embryos in the blastula stage of 129sv/J mice) at 37° C., 5% CO2 and 95% humidity on the feeder cells provided by Example 1.
An experimental group medium (BP5, BP10, BP20 or BP40) and a control group medium (without BP) were added respectively to perform the following steps. ES cells were cultured with an initial density of 1×10^4 per well in a 6-well culture dish. The medium was removed until the cells growth to be about 70 to 80% confluence, and then 1 ml TRIzol (Invitrogen) was added into each well. The cells were incubated for 5 minutes, and then was scraped by a spatula and placed into a 1.5 ml microtube to be lysed adequately. Chloroform (0.2 ml) was added into the microtubes. The mixture was shaken up and down for 15 seconds, and then incubated at room temperature for 2 to 3 minutes. Thereafter, the mixture was centrifuged at 12000 rpm at 4° C. for 15 minutes, and the supernatant was removed into another 1.5 ml microtube and isopropanol (0.5 ml) was added into the microtube with well mixing. The mixture was incubated at room temperature for 10 minutes and then centrifuged at 12000 rpm at 4° C. for 10 minutes. The supernatant was then removed. One ml of 70% ethanol containing DEPC.H2O was used to wash the remaining sediment. The sediment was centrifuged at 7500 rpm at 4° C. for 5 minutes. The supernatant was removed. The sediment was dried by vacuum suction. The dried samples were dissolved in about 0.01 to 0.02 ml of DEPC.H2O to obtain the experimental group RNA and control group RNA. Both groups were stored at −80° C.
The OD value of RNA samples in both groups obtained from the above Experiment I were measured at a wavelength of 260 nm (RNA: OD260=1 for a 40 μg/mL solution). Each RNA sample (2 μl) was added with RNA-free water until the volume of the sample reached 10 μl. Two μl oligo (dT) (100 μg/ml) was added into each sample, and the samples were incubated at 65° C. for 5 minutes. Then, the samples were immediately placed on ice and spun down. Next, 6.5 μl of a reaction solution [4 μl of 5× buffer+1 μl of 0.1 M DTT+1 μl of RNase out+0.5 μl of SSIII (Invitrogen)] was added into each of the samples, and the samples were incubated at 50° C. for about 30 to 60 minutes and at 75° C. for 15 minutes to obtain the experimental group cDNA and control group cDNA. Both groups were stored at −80° C.
This experiment was used to detect the expression levels of ES cell-related genes, i.e., Oct4 and Sox2, etc. […] The cycle threshold (CT) values were measured.

ES cells = assay: Embryoid body formation and differentiation of ES cells; assay type: cell-based, mouse; conditions: BP10 medium, ES cells passaged 3 times, Tuj1, α-SMA, Gata4 staining
Method: The embryoid body formation and differentiation were also observed by immunofluorescence staining to observe the effect of BP on maintaining the pluripotency of ES cells.
An experimental group medium (BP10) was used to culture ES cells with an initial density of 1×10^4 per well in a 6-well culture dish. The ES cells were passaged 3 times and incubated for another 2 to 3 days in the Ultra Low Cluster Plate (Costar) containing the embryoid body formation medium [DMEM+20% FBS+β-mercaptoethanol (1 mM)+1% L-glutamine+1% NEAA], and then the embryoid body formation was observed. The embryoid bodies were placed into another 24-well culture dish (5 to 6 embryoid bodies/well) and incubated for another 3 days. Next, immunofluorescence staining was conducted to detect cells with an anti-Tuj1 antibody (ectoderm marker), an anti-α-SMA antibody (mesoderm marker) and an anti-Gata4 antibody (endoderm marker).

SMILES: CCCC=C1OC(=O)c2ccccc21 [BP, n-butylidenephthalide]
- Sox2 gene expression level (Sox2; BP5 medium (about 5 μg BP/ml)): 91%
- Sox2 gene expression level (Sox2; BP10 medium (about 10 μg BP/ml)): 245%
- Sox2 gene expression level (Sox2; BP20 medium (about 20 μg BP/ml)): 210%
- Sox2 gene expression level (Sox2; BP40 medium (about 40 μg BP/ml)): 140%
- gene expression level of Sox2 (Sox2; BP-containing ES cell culture medium vs control group, result in words): significantly up-regulated
- embryoid body formation and differentiation (ES cells): form an embryoid body and further differentiate into all three germ layer cells
